In one data set the test system is S. typhimurium TA98. In words: Ames test. To be noted: 7i 40 µg/plate. Background: The Ames test detects mutagens through reverse mutation in bacteria.
Another data set deals with S. typhimurium TA1537. Nature of the data set: Ames test. The following applies: 7i 40 µg/plate.
Another data set concerns S. typhimurium TA100. To be noted: +S9; 7i 40 µg/plate; positive control 2-anthramine 0.5.
A further data set has as its system S. typhimurium TA1535. To be noted: +S9; 7i 40 µg/plate; positive control 2-anthramine 0.5.
In data set [1] the test system is experimental autoimmune encephalomyelitis (EAE). Also noted: method as in PMID 25521311. To be noted: BD-1047 alone; cited from earlier work.
A further data set relates to TK6 cells. To be noted: human.
The next data set has as its system S1R–BiP complex. Nature of the data set: S1R-BiP dissociation assay in CHO cells (co-IP, ELISA). The format is cell-based. To be noted: for effect on S1R–BiP association: 10 µM, 30-min incubation. On the procedure: The activity of compound 7i was evaluated in regard to its ability to dissociate the S1R–BiP complex. The S1R–BiP dissociation assay was performed by Amylgen (Montferrier-sur-Lez, France) as described in [13, 79]. Briefly, CHO cells were treated with test compounds for 30 min (37 °C). Crosslinking was performed with dithiobis succinimidyl propionate (DSP; Thermoscientific, Waltham, MA, USA). Lysis was performed after incubation for 15 min on ice. After centrifugation, supernatants were incubated overnight (4 °C) with the S1R antibody (Abcam, Cambridge, UK). Lysates were incubated with Sepharose Protein-A (Invitrogen). After the first centrifugation, the pellet was resuspended in radioimmunoprecipitation assay (RIPA) buffer. After a second centrifugation, the pellet was resuspended in 2× sample buffer/bMCE buffer. After the third centrifugation, supernatants were analyzed for BiP immunoreactivity (SEC343Mu ELISA, USCNK Life Sciences, Wuhan, China).
A general note: An ELISA detects its analyte on a solid surface through an enzyme-linked reagent.

In data set [2] the test system is dizocilpine-induced learning deficits. Nature of the data set: Dizocilpine-induced learning deficits, Y-maze spontaneous alternation. To be noted: 3 mg/kg i.p., alone. Format: in vivo, male Swiss mice. On the procedure: (§1) The activity of compound 7i was evaluated in regard to its ability to reverse dizocilpine-induced learning deficits. Two behavioral tests were performed by Amylgen (Montferrier-sur-Lez, France) on male Swiss mice (aged 6–9 weeks). All compounds (7i and controls) were intraperitoneally injected.
(§2) Animals were tested for spontaneous alternation performance in the Y-maze, an index of spatial working memory. Made of grey polyvinylchloride, the Y-maze has an arm which is 40 cm long, 13 cm high and 3 cm wide at the bottom and 10 cm wide at the top, converging at an equal angle. Each mouse was placed at the end of one arm and allowed to move freely through the maze during an 8-min session. The series of arm entries, including possible returns into the same arm, were checked visually. An alternation was defined as entries into all three arms on consecutive occasions. The number of maximum alternations was therefore the total number of arm entries minus two, and the percentage of alternation was calculated as: (actual alternations/maximum alternations) × 100. Parameters included the percentage of alternation (memory index) and the total number of arm entries (exploration index). Animals showing extreme behavior (alternation < 20% or >90% or number of arm entries < 10) are usually discarded from the calculations. […] Step-through latency (the latency in time spent to enter the dark compartment) and the number of vocalizations were recorded. […] Step-through latency was recorded up to 300 s. When either the mouse entered the dark compartment or 300 s had elapsed (they were therefore manually placed in it), escape latency (latency to exit from the dark compartment) was recorded with a value of up to 300 s. […]

For data set [3] the test system is unchanged. Nature of the data set: Dizocilpine-induced learning deficits, step-through passive avoidance. To be noted: 3 mg/kg i.p., alone. The format is in vivo, male Swiss mice. On the procedure:
as §1, §2

In another data set the test system is QT interval. In words: ECG QT interval analysis under isoflurane anesthesia. The following applies: for QT Interval Basal / QT Interval 3 min / QT Interval 6 min / QT Interval 10 min: in ms (unit assumed); for QT Interval 3 min: 3 min after injection; for QT Interval 6 min: 6 min after injection; for QT Interval 10 min: 10 min after injection.
The mark [4] stands for this setting: +S9, positive control 2-anthramine 0.5.

Description for QT interval: Four electrodes were inserted subcutaneously in the mouse limbs. Electrical signals were recorded with a Powerlab (Ad instruments) and analyzed with LabChart Pro software (v8.1.19).
Heart rate and PR, QRS and QT intervals were measured as described in Supplementary Figure S3.
Description for TK6 cells: The frequency of micronucleated (MN) cells was determined out of at least 2000 mononucleated cells.

`Nc1ccc2cc3ccccc3cc2c1` [2-anthramine, reference compound]: the “Ames TA98 +S9 (Mean revertants/well per title)” value in the data set on S. typhimurium TA98 (setting [4]) is recorded as 36.0. In addition, the “Ames TA1537 +S9 (Mean revertants/well per title)” value in the data set with S. typhimurium TA1537 (setting [4]) is recorded as 27.6. For the same compound, the “Ames TA100 +S9 (Mean revertants/well per title)” value in the data set on S. typhimurium TA100 is on record as 6.0. Also, the “Ames TA1535 +S9 (Mean revertants/well per title)” value in the data set on S. typhimurium TA1535 is 26.9.

`O=[N+]([O-])c1ccc2c(c1)Cc1ccccc1-2` [2-nitrofluorene, reference compound]: the “Ames TA98 −S9 (Mean revertants/well per title)” value in the data set with S. typhimurium TA98 (−S9, positive control 2-nitrofluorene 0.5) was 23.1.

On to `Nc1c2ccccc2nc2ccccc12` [9-amino-acridine, reference compound], for which, in the data set on S. typhimurium TA1537 (−S9, positive control 9-amino-acridine 1.56), the “Ames TA1537 −S9 (Mean revertants/well per title)” value is on record as 8.4.

Consider `CN(C)CCN(C)CCc1ccc(Cl)c(Cl)c1` [BD-1047], for which the “effect on EAE development, alone” value in data set [1] is given as “no significant effect”.

For the compound `O=P1(N(CCCl)CCCl)NCCCO1` (centres unmarked) [Cyclophosphamide], in the data set on TK6 cells, the “MN/2 × 10^3 Cells” value came to 35.5 and the “RS (%)” value is 88.3%.

Turning to `CCCN(CCC)CCc1ccc(OC)c(OCCc2ccccc2)c1` [NE-100, reference compound], the “effect on S1R–BiP association” value with S1R–BiP complex is “no effect”. The “effect by itself in Y-maze” value in data set [2] was “devoid of any effect”. The “effect by itself in passive avoidance” value in data set [3] is “devoid of any effect”.

Take `O=C(OCCN1CCOCC1)C1(c2ccccc2)CCCCC1` [PRE-084, reference compound]: the “effect on S1R–BiP association” value in the data set on S1R–BiP complex was “significantly causes the dissociation”. Also, the “effect on S1R–BiP dissociation in presence of NE-100” value in the data set on S1R–BiP complex (co-treatment with NE-100 (10 µM)) was “blocks”.

Take `C=C[C@H]1C[N@@]2CC[C@H]1C[C@@H]2[C@@H](O)c1ccnc2ccc(OC)cc12` [Quinidine, reference compound]: in the data set with QT interval (10 mg/kg and 100 mg/kg i.p., 6 to 10 min after injection), the “QT interval, conclusion” value was “dose-dependently prolonged the QT interval”. Further, in the data set on QT interval (10.0 mg/kg i.p. group), the “QT Interval Basal” value came out at 46 ± 2. In the data set with QT interval (10.0 mg/kg i.p.), the “QT Interval 3 min” value was 50 ± 2, the “QT Interval 6 min” value is 64 ± 6 and the “QT Interval 10 min” value is 65 ± 5. The “QT Interval Basal” value with QT interval (100.0 mg/kg i.p. group) came to 47 ± 4. For the same compound, in the data set on QT interval (100.0 mg/kg i.p.), the “QT Interval 3 min” value is recorded as 58 ± 3, the “QT Interval 6 min” value is given as 84 ± 7 and the “QT Interval 10 min” value came out at 76 ± 4.
